Laboratory results taken from US10538555B2, “Macrocyclic inhibitors of the PD-1/PD-L1 and CD80(B7-1)/PD-L1 protein/protein interactions” (BRISTOL-MYERS SQUIBB COMPANY, priority 2014, dated 2020).
Where a SMILES comes first, the peptide text is derived from it. Bridges are numbered along the chain shown (N, C = ends). [ ]: non-standard residue; d: D form. Trp(1-CH2COOH) = N[C@@H](Cc1cn(CC(=O)O)c2ccccc12)C(=O)O; Bta = N[C@@H](Cc1csc2ccccc12)C(=O)O; Hyp = O=C(O)[C@@H]1C[C@@H](O)CN1; NMeNle = CCCC[C@H](NC)C(=O)O; NMeA = CN[C@@H](C)C(=O)O; Dab = NCC[C@H](N)C(=O)O; Dap = NC[C@H](N)C(=O)O

biological target: T1, Human PD-L1/PD-1 (Homo sapiens, UniProt Q9NZQ7); assay: HTRF Human PD-L1/PD-1 binding assay (PD-1-Ig/PD-L1-His); conditions: PD-L1-His 10 nM, PD-1-Ig 20 nM; class symbol; read-out: HTRF Human PD-L1/PD-1 Binding Assay IC50 Range
T1 construct: TVMV protease cleavage site (C); made in house; host or cells: HEK293T cells
Outline: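 HTRF read-out (665/620 nm ratio) after 30 min equilibration with Eu-cryptate anti-Ig mAb (1 nM) and APC anti-His mAb (20 nM). Peptides preincubated 15 min with PD-L1-His (10 nM), then PD-1-Ig (20 nM) added for 15 min.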

T1 sequence (Q9NZQ7 with tags, fused parts or gaps): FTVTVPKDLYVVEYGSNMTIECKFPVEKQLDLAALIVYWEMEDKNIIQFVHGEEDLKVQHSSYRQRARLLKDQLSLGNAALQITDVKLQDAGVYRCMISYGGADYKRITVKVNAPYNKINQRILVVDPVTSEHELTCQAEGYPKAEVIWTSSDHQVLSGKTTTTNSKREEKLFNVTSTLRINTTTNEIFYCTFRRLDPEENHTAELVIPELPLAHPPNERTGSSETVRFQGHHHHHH

IC50 [nM]	Compound
1 to 9.9	CCCC[C@H]1C(=O)N(C)[C@@H](CCCC)C(=O)N[C@@H](CCC(=O)O)C(=O)N[C@H](C(=O)NCC(N)=O)CSCC(=O)N[C@@H](Cc2ccc(O)cc2)C(=O)N(C)[C@@H](C)C(=O)N[C@@H](CC(N)=O)C(=O)N2CCC[C@H]2C(=O)N[C@@H](CN)C(=O)N[C@@H](CC(C)C)C(=O)N2C[C@H](O)C[C@H]2C(=O)N[C@@H](Cc2c[nH]c3ccccc23)C(=O)N[C@@H](CO)C(=O)N[C@@H](Cc2c[nH]c3ccccc23)C(=O)N1C [Example 5165] ({CH2CO}-Y[NMeA]NP[Dap]L[Hyp]WSW[NMeNle][NMeNle]ECG-NH2; thioether N-14)
10 to 99.9	CCCC[C@H]1C(=O)N(C)[C@@H](CCCC)C(=O)N[C@@H](C)C(=O)N[C@H](C(=O)NCC(N)=O)CSCC(=O)N[C@@H](Cc2ccc(O)cc2)C(=O)N(C)[C@@H](C)C(=O)N[C@@H](CC(N)=O)C(=O)N2CCC[C@H]2C(=O)N[C@@H](CN)C(=O)N[C@@H](CC(C)C)C(=O)N2C[C@H](O)C[C@H]2C(=O)N[C@@H](Cc2c[nH]c3ccccc23)C(=O)N[C@@H](CCN)C(=O)N[C@@H](Cc2cn(CC(=O)O)c3ccccc23)C(=O)N1C [Example 5166] ({CH2CO}-Y[NMeA]NP[Dap]L[Hyp]W[Dab][Trp(1-CH2COOH)][NMeNle][NMeNle]ACG-NH2; thioether N-14)
1 to 9.9	CCCC[C@H]1C(=O)N(C)[C@@H](CCCC)C(=O)N[C@@H](CCC(=O)O)C(=O)N[C@H](C(=O)NCC(N)=O)CSCC(=O)N[C@@H](Cc2ccc(O)cc2)C(=O)N(C)[C@@H](C)C(=O)N[C@@H](CC(N)=O)C(=O)N2CCC[C@H]2C(=O)N[C@@H](CO)C(=O)N[C@@H](CCC(=O)O)C(=O)N2C[C@H](O)C[C@H]2C(=O)N[C@@H](Cc2c[nH]c3ccccc23)C(=O)N[C@@H](CCN)C(=O)N[C@@H](Cc2c[nH]c3ccccc23)C(=O)N1C [Example 5167] ({CH2CO}-Y[NMeA]NPSE[Hyp]W[Dab]W[NMeNle][NMeNle]ECG-NH2; thioether N-14)
1 to 9.9	CCCC[C@H]1C(=O)N(C)[C@@H](CCCC)C(=O)N[C@@H](C)C(=O)N[C@H](C(=O)NCC(N)=O)CSCC(=O)N[C@@H](Cc2ccc(O)cc2)C(=O)N(C)[C@@H](C)C(=O)N[C@@H](CC(N)=O)C(=O)N2CCC[C@H]2C(=O)N[C@@H](CN)C(=O)N[C@@H](CCC(=O)O)C(=O)N2C[C@H](O)C[C@H]2C(=O)N[C@@H](Cc2c[nH]c3ccccc23)C(=O)N[C@@H](CCN)C(=O)N[C@@H](Cc2cn(CC(=O)O)c3ccccc23)C(=O)N1C [Example 5168] ({CH2CO}-Y[NMeA]NP[Dap]E[Hyp]W[Dab][Trp(1-CH2COOH)][NMeNle][NMeNle]ACG-NH2; thioether N-14)
1 to 9.9	CCCC[C@H]1C(=O)N(C)[C@@H](CCCC)C(=O)N[C@@H](CCC(=O)O)C(=O)N[C@H](C(=O)NCC(N)=O)CSCC(=O)N[C@@H](Cc2ccc(O)cc2)C(=O)N(C)[C@@H](C)C(=O)N[C@@H](CC(=O)O)C(=O)N2CCC[C@H]2C(=O)N[C@@H](CN)C(=O)N[C@@H](CCC(=O)O)C(=O)N2C[C@H](O)C[C@H]2C(=O)N[C@@H](Cc2c[nH]c3ccccc23)C(=O)N[C@@H](CO)C(=O)N[C@@H](Cc2c[nH]c3ccccc23)C(=O)N1C [Example 5170] ({CH2CO}-Y[NMeA]DP[Dap]E[Hyp]WSW[NMeNle][NMeNle]ECG-NH2; thioether N-14)
1 to 9.9	CCCC[C@H]1C(=O)N(C)[C@@H](CCCC)C(=O)N[C@@H](CC(C)C)C(=O)N[C@H](C(=O)NCC(N)=O)CSCC(=O)N[C@@H](Cc2ccc(O)cc2)C(=O)N(C)[C@@H](C)C(=O)N[C@@H](CC(=O)O)C(=O)N2CCC[C@H]2C(=O)N[C@@H](CN)C(=O)N[C@@H](CC(C)C)C(=O)N2C[C@H](O)C[C@H]2C(=O)N[C@@H](Cc2c[nH]c3ccccc23)C(=O)N[C@@H](CCN)C(=O)N[C@@H](Cc2cn(CC(=O)O)c3ccccc23)C(=O)N1C [Example 5171] ({CH2CO}-Y[NMeA]DP[Dap]L[Hyp]W[Dab][Trp(1-CH2COOH)][NMeNle][NMeNle]LCG-NH2; thioether N-14)
10 to 99.9	CCCC[C@H]1C(=O)N(C)[C@@H](CCCC)C(=O)N[C@@H](CCC(=O)O)C(=O)N[C@H](C(=O)NCC(N)=O)CSCC(=O)N[C@@H](Cc2ccc(O)cc2)C(=O)N(C)[C@@H](C)C(=O)N[C@@H](CC(=O)O)C(=O)N2CCC[C@H]2C(=O)N[C@@H](CO)C(=O)N[C@@H](CCC(N)=O)C(=O)N2C[C@H](O)C[C@H]2C(=O)N[C@@H](Cc2c[nH]c3ccccc23)C(=O)N[C@@H](CCC(=O)O)C(=O)N[C@@H](Cc2c[nH]c3ccccc23)C(=O)N1C [Example 5177] ({CH2CO}-Y[NMeA]DPSQ[Hyp]WEW[NMeNle][NMeNle]ECG-NH2; thioether N-14)
1 to 9.9	CCCC[C@H]1C(=O)N(C)[C@@H](CCCC)C(=O)N[C@@H](CCCNC(=N)N)C(=O)N[C@H](C(=O)NCC(N)=O)CSCC(=O)N[C@@H](Cc2ccc(O)cc2)C(=O)N(C)[C@@H](C)C(=O)N[C@@H](CO)C(=O)N2CCC[C@H]2C(=O)N[C@@H](Cc2cnc[nH]2)C(=O)N[C@@H](CCC(N)=O)C(=O)N2C[C@H](O)C[C@H]2C(=O)N[C@@H](Cc2c[nH]c3ccccc23)C(=O)N[C@@H](CO)C(=O)N[C@@H](Cc2c[nH]c3ccccc23)C(=O)N1C [Example 5178] ({CH2CO}-Y[NMeA]SPHQ[Hyp]WSW[NMeNle][NMeNle]RCG-NH2; thioether N-14)
10 to 99.9	CCCC[C@H]1C(=O)N(C)[C@@H](CCCC)C(=O)N[C@@H](CC(=O)O)C(=O)N[C@H](C(=O)NCC(N)=O)CSCC(=O)N[C@@H](Cc2ccc(O)cc2)C(=O)N(C)[C@@H](C)C(=O)N[C@@H](CC(N)=O)C(=O)N2CCC[C@H]2C(=O)N[C@@H](Cc2c[nH]cn2)C(=O)N[C@@H](CCC(=O)O)C(=O)N2C[C@H](O)C[C@H]2C(=O)N[C@@H](Cc2c[nH]c3ccccc23)C(=O)N[C@@H](CCN)C(=O)N[C@@H](Cc2cn(CC(=O)O)c3ccccc23)C(=O)N1C [Example 5181] ({CH2CO}-Y[NMeA]NPHE[Hyp]W[Dab][Trp(1-CH2COOH)][NMeNle][NMeNle]DCG-NH2; thioether N-14)

Continued, compound first:

Compound	IC50 [nM]
CCCC[C@H]1C(=O)N(C)[C@@H](CCCC)C(=O)N[C@@H](CCC(=O)O)C(=O)N[C@H](C(=O)NCC(N)=O)CSCC(=O)N[C@@H](Cc2ccc(O)cc2)C(=O)N(C)[C@@H](C)C(=O)N[C@@H](CC(=O)O)C(=O)N2CCC[C@H]2C(=O)N[C@@H](CN)C(=O)N[C@@H](CC(C)C)C(=O)N2C[C@H](O)C[C@H]2C(=O)N[C@@H](Cc2c[nH]c3ccccc23)C(=O)N[C@@H](CO)C(=O)N[C@@H](Cc2c[nH]c3ccccc23)C(=O)N1C [Example 5164] ({CH2CO}-Y[NMeA]DP[Dap]L[Hyp]WSW[NMeNle][NMeNle]ECG-NH2; thioether N-14)	1 to 9.9
CCCC[C@H]1C(=O)N(C)[C@@H](CCCC)C(=O)N[C@@H](CC(C)C)C(=O)N[C@H](C(=O)NCC(N)=O)CSCC(=O)N[C@@H](Cc2ccc(O)cc2)C(=O)N(C)[C@@H](C)C(=O)N[C@@H](CC(N)=O)C(=O)N2CCC[C@H]2C(=O)N[C@@H](Cc2c[nH]cn2)C(=O)N[C@@H](CCC(=O)O)C(=O)N2C[C@H](O)C[C@H]2C(=O)N[C@@H](Cc2c[nH]c3ccccc23)C(=O)N[C@H](C)C(=O)N[C@@H](Cc2csc3ccccc23)C(=O)N1C [Example 5169] ({CH2CO}-Y[NMeA]NPHE[Hyp]W[dA][Bta][NMeNle][NMeNle]LCG-NH2; thioether N-14)	1 to 9.9
CCCC[C@H]1C(=O)N(C)[C@@H](CCCC)C(=O)NCC(=O)N[C@H](C(=O)NCC(N)=O)CSCC(=O)N[C@@H](Cc2ccc(O)cc2)C(=O)N(C)[C@@H](C)C(=O)N[C@@H](CC(N)=O)C(=O)N2CCC[C@H]2C(=O)NCC(=O)N[C@@H](CCC(N)=O)C(=O)N2C[C@H](O)C[C@H]2C(=O)N[C@@H](Cc2c[nH]c3ccccc23)C(=O)N[C@@H](CO)C(=O)N[C@@H](Cc2c[nH]c3ccccc23)C(=O)N1C [Example 5175] ({CH2CO}-Y[NMeA]NPGQ[Hyp]WSW[NMeNle][NMeNle]GCG-NH2; thioether N-14)	1 to 9.9
CCCC[C@H]1C(=O)N(C)[C@@H](CCCC)C(=O)N[C@@H](CN)C(=O)N[C@H](C(=O)NCC(N)=O)CSCC(=O)N[C@@H](Cc2ccc(O)cc2)C(=O)N(C)[C@@H](C)C(=O)N[C@@H](CC(=O)O)C(=O)N2CCC[C@H]2C(=O)N[C@@H](CN)C(=O)N[C@@H](CCC(=O)O)C(=O)N2C[C@H](O)C[C@H]2C(=O)N[C@@H](Cc2c[nH]c3ccccc23)C(=O)N[C@@H](CCN)C(=O)N[C@@H](Cc2cn(CC(=O)O)c3ccccc23)C(=O)N1C [Example 5176] ({CH2CO}-Y[NMeA]DP[Dap]E[Hyp]W[Dab][Trp(1-CH2COOH)][NMeNle][NMeNle][Dap]CG-NH2; thioether N-14)	1 to 9.9
CCCC[C@H]1C(=O)N(C)[C@@H](CCCC)C(=O)N[C@@H](CCC(=O)O)C(=O)N[C@H](C(=O)NCC(N)=O)CSCC(=O)N[C@@H](Cc2ccc(O)cc2)C(=O)N(C)[C@@H](C)C(=O)N[C@@H](CC(=O)O)C(=O)N2CCC[C@H]2C(=O)N[C@@H](CO)C(=O)N[C@@H](CC(C)C)C(=O)N2C[C@H](O)C[C@H]2C(=O)N[C@@H](Cc2c[nH]c3ccccc23)C(=O)N[C@@H](CCN)C(=O)N[C@@H](Cc2c[nH]c3ccccc23)C(=O)N1C [Example 5179] ({CH2CO}-Y[NMeA]DPSL[Hyp]W[Dab]W[NMeNle][NMeNle]ECG-NH2; thioether N-14)	1 to 9.9
CCCC[C@H]1C(=O)N(C)[C@@H](CCCC)C(=O)N[C@@H](CC(C)C)C(=O)N[C@H](C(=O)NCC(N)=O)CSCC(=O)N[C@@H](Cc2ccc(O)cc2)C(=O)N(C)[C@@H](C)C(=O)N[C@@H](CC(=O)O)C(=O)N2CCC[C@H]2C(=O)N[C@@H](CN)C(=O)N[C@@H](CCC(=O)O)C(=O)N2C[C@H](O)C[C@H]2C(=O)N[C@@H](Cc2c[nH]c3ccccc23)C(=O)N[C@@H](CCN)C(=O)N[C@@H](Cc2cn(CC(=O)O)c3ccccc23)C(=O)N1C [Example 5180] ({CH2CO}-Y[NMeA]DP[Dap]E[Hyp]W[Dab][Trp(1-CH2COOH)][NMeNle][NMeNle]LCG-NH2; thioether N-14)	1 to 9.9
